Data from US9278925B2, “Substituted 3-(biphenyl-3-yl)-4-hydroxy-8-methoxy-1-azaspiro[4.5]dec-3-en-2-one” (BAYER INTELLECTUAL PROPERTY GMBH, priority 2011, dated 2016).
“And” between values parts separate entries of the source, which are not always exact repeats. Identical values can stand only once. Like-named read-outs stand apart in the source and are kept apart here.

Legend:
[1] = reference substances with known distribution coefficients; cited from earlier work
[2] = Plasma protein binding by equilibrium dialysis; type: in vitro ADME
Protocol: The binding of test substances to plasma proteins is determined by equilibrium dialysis by means of the Ht-dialysis apparatus (96-well) made of Teflon and a semipermeable membrane (regenerated cellulose, MWCO 12-14K). This separates 150 μl each of a plasma side and a buffer side (50 mM phosphate buffer). The test substance is added in 2 concentrations (usually 3 and 0.3 μM) to the plasma side and binds to plasma proteins. The unbound fraction of the test substance passes through the membrane and is distributed on either side until equilibrium is established (after approx. 6-8 h at 37° C.). The substance concentration on the buffer side and the plasma side is determined by LC-MS analysis. For this, both sides are brought by dilution with buffer or plasma to the same matrix (10% plasma) and then precipitated with methanol. The free (unbound) fraction (fu) is calculated from the quotient of the buffer and plasma concentration. Stability tests and recovery tests are run concurrently as controls. In addition, the substance in buffer is dialysed against buffer, to check the nonspecific binding to apparatus and membrane and establishment of equilibrium. Because during incubation the osmotic pressure of the plasma proteins leads to dilution of the plasma (volume shift), this possible error is determined by weighing blank plasma samples and is included in the calculation of fu. Establishment of equilibrium and plasma stability should have a value not lower than 80% and the recovery should be at least 30%. A free fraction of <1% is regarded as high, between 1 and 10% as moderate and >10% as low plasma protein binding.

[3] = Membrane affinity logMA (MA-Transil); type: physicochemical; conditions: buffer pH 7.4
Protocol: Assays for Determining Membrane Affinity logMA and Protein Binding to Human Serum Albumin (HSA):
Determination of membrane affinity and protein binding to human serum albumin (HSA) was carried out via Transil technology (literature: A. Loidl-Stahlhofen, A. Eckert, T. Hartmann, M. Schöttner J Pharm Sci 90, 599-606 (2001)). Transil® (commercially available from Sovicell in Leipzig, Germany) are glass beads (diameter 10-12 μm) coated with a double-layer membrane of phosphatidylcholine (MA-Transil) or covalently attached human serum albumin (HSA-Transil).
To determine the logMA and the protein binding constant to HSA, the commercially available TRANSIL Intestinal Absorption & HSA Binding Combined Assay Kit was used. This is a 96-well microtitre plate (96 well-MTP) which is filled with Transil and can be used to determine MA-Transil and HSA-Transil binding of in each case eight active compounds. For each active compound, the Transil plate provides a row of 12 wells. Two wells serve as reference and are only filled with buffer pH 7.4. Five further wells contain MA-Transil in various increasing concentrations, the five remaining wells contain HSA-Transil in various increasing concentrations.
To determine binding of an active compound to Transil, the supernatant of the wells with Transil was quantified against the reference solution without Transil via HPLC-MS coupling (HPLC-MS=high performance liquid chromatography/mass spectrometry).
This is how the individual steps of the assay were carried out:
From the internal substance store, the active compounds were delivered in a 96-well MTP. This plate is referred to as mother plate. Each well contained 30 μl of a 10 mmol solution of active compound in DMSO (dimethyl sulphoxide). Two wells at the start (well A1) and at the end of the plate (well H12) were filled with 30 μl of a 10 mmol solution of warfarin in DMSO. Warfarin, whose membrane affinity and binding to HSA is known, serves to check whether the measurement is correct. The mother plate was used to prepare a daughter plate with a 1 to 4000 dilution with a mixture of buffer pH 7.4 and DMSO in a ratio of 1+1. The active compound concentration of each well was 2.5 μmol/liter, the volume of each well was 400 μl.
Using a Hamilton pipetting robot Microlab STAR, the 96 active compounds from the daughter plate were divided onto 12 Transil plates in total. From each well of the daughter plate, 12 times 20 μl were removed. The concentration of each well of the Transil plate was 0.25 μmol/liter, which corresponds to a dilution of 1 to 10. The DMSO content was 5%.
The filled Transil plates were each resuspended for two minutes, then allowed to stand at room temperature for at least two minutes and then centrifuged at 600 rotations per minute for five minutes. The pipetting robot was then used to remove 20 μl of supernatant from each well of the Transil plate and to transfer these to a separate microtitre plate. Here, the supernatants of in each case four Transil plates were pooled in a microtitre plate, so that at the end there were three pooled microtitre plates with in each case 80 μl of solution and an active compound concentration of 62.5 nM per well.
Prior to quantification of the active compounds by HPLC-MS, an optimization has to be carried out for each active compound where by way of a single injection daughter ion and optimum electrical voltages are determined. To this end, the pipetting robot prepared a dilution of the mother plate of 1 to 10 000 000 in an acetonitrile/water mixture in a ratio of 8+2 in a separate microtitre plate. This microtitre plate was measured by HPLC-MS using the software Discovery Quant Optimize from AB Sciex. The three pooled microtitre plates were measured by HPLC-MS using the software Discovery Quant Analyze from AB Sciex. […]

human ACC1 [4] = assay: Human ACC1 enzyme assay (ADP-Glo); type: biochemical; conditions: for Ratio IC50s ACC2/ACC1 (respective measurement): pairwise, same dilution series
Protocol: (§1) Typical concentrations were in the range of 1.75 μl.

human ACC1 [5] = target: human ACC1 (Homo sapiens, UniProt Q13085); assay: Human ACC1 enzyme assay (ADP-Glo); type: biochemical; conditions: individual measurement (measurement no./preparation no. in table); read-out: ACC 1 IC50
Protocol: as §1

[6] = target: human serum albumin (HSA) (Homo sapiens (Human), UniProt P02768); assay: Protein binding to human serum albumin (HSA-Transil); conditions: buffer pH 7.4
Protocol: Assays for Determining Membrane Affinity logMA and Protein Binding to Human Serum Albumin (HSA): Determination of membrane affinity and protein binding to human serum albumin (HSA) was carried out via Transil technology (literature: A. Loidl-Stahlhofen, A. Eckert, T. Hartmann, M. […] Pharm Sci 90, 599-606 (2001)). Transil® (commercially available from Sovicell in Leipzig, Germany) are glass beads (diameter 10-12 μm) coated with a double-layer membrane of phosphatidylcholine (MA-Transil) or covalently attached human serum albumin (HSA-Transil). To determine the logMA and the protein binding constant to HSA, the commercially available TRANSIL Intestinal Absorption & HSA Binding Combined Assay Kit was used. This is a 96-well microtitre plate (96 well-MTP) which is filled with Transil and can be used to determine MA-Transil and HSA-Transil binding of in each case eight active compounds. […] Two wells serve as reference and are only filled with buffer pH 7.4. Five further wells contain MA-Transil in various increasing concentrations, the five remaining wells contain HSA-Transil in various increasing concentrations. To determine binding of an active compound to Transil, the supernatant of the wells with Transil was quantified against the reference solution without Transil via HPLC-MS coupling (HPLC-MS=high performance liquid chromatography/mass spectrometry). This is how the individual steps of the assay were carried out: From the internal substance store, the active compounds were delivered in a 96-well MTP. This plate is referred to as mother plate. […] Warfarin, whose membrane affinity and binding to HSA is known, serves to check whether the measurement is correct. […] Using a Hamilton pipetting robot Microlab STAR, the 96 active compounds from the daughter plate were divided onto 12 Transil plates in total. From each well of the daughter plate, 12 times 20 μl were removed. The concentration of each well of the Transil plate was 0.25 μmol/liter, which corresponds to a dilution of 1 to 10. […] The filled Transil plates were each resuspended for two minutes, then allowed to stand at room temperature for at least two minutes and then centrifuged at 600 rotations per minute for five minutes. The pipetting robot was then used to remove 20 μl of supernatant from each well of the Transil plate and to transfer these to a separate microtitre plate. […] Prior to quantification of the active compounds by HPLC-MS, an optimization has to be carried out for each active compound where by way of a single injection daughter ion and optimum electrical voltages are determined. […] This microtitre plate was measured by HPLC-MS using the software Discovery Quant Optimize from AB Sciex. The three pooled microtitre plates were measured by HPLC-MS using the software Discovery Quant Analyze from AB Sciex. • Sciex Triple Quad 5500 mass spectrometer (from AB Sciex) • PAL Autosampler DLW Option Software: Analyst 1.4 (from AB Sciex) • Discovery Quant Optimize (from AB Sciex) • Discovery Quant Analyze (from AB Sciex) Optimization: […] Column: Poroshell 120 SB-C18 2.7 μm 3×30 mm Injection volume: 2 μl Flow rate: 1 ml/min: […] Evaluation of the HPLC peaks was carried out using Discovery Quant Analyze. The results (logMA and binding constant to HSA Kd) were calculated using an Excel workbook provided by Sovicell.

[7] = human plasma, read-out: fu [%] (human)
[8] = mouse plasma, read-out: fu [%] (mouse)

Chain of human serum albumin (HSA) (P02768 25-609): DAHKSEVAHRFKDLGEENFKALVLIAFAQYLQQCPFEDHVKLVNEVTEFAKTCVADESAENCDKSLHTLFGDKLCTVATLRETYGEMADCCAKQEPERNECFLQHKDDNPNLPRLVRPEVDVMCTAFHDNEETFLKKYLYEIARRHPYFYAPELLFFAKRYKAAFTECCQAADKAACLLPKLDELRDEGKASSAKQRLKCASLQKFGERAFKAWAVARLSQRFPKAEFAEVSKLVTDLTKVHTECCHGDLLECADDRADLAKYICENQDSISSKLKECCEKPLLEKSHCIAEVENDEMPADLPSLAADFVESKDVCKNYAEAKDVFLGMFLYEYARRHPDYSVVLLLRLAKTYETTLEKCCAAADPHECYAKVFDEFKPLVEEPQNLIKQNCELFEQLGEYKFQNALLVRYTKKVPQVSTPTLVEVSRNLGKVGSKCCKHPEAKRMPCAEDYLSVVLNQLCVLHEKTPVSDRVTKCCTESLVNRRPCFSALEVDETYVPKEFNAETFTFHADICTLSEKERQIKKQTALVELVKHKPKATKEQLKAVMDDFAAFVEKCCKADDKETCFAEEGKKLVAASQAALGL

**Q.** For `c1ccc(-c2cccc(-c3ccccc3)n2)cc1` [2,6-diphenylpyridine], which “log P” value [1] is on record?
**A.** 4.9

**Q.** Which “log P” value [1] does the source give for `Clc1ccc(C(c2ccc(Cl)cc2)C(Cl)(Cl)Cl)cc1` [DDT] here?
**A.** 6.2

**Q.** Which results are given for `Cc1ccc(-c2ccc(Cl)cc2)cc1C1=C(O)[C@]2(CC[C@H](C(F)(F)F)CC2)NC1=O` [V.1-b, (5s,8s)-3-(4′-Chloro-4-methylbiphenyl-3-yl)-4-hydroxy-8-(trifluoromethyl)-1-azaspiro[4.5]dec-3-en-2-one]?
**A.** fraction unbound [2, 7]: 0.0007; fraction unbound [2, 8]: 0.0241; logMA [3]: 2.38; Selectivity ACC1 vs. ACC2 (mean of the individual measurements ± standard deviation) (human ACC1 [4]): 9.8 ± 1.4; Ratio IC50s ACC2/ACC1 (respective measurement) (human ACC1 [4]): 11.2 and 8.4; IC50 (human ACC1 [5]): 109 nM and 111 nM; Kd [6]: 3070 nM

**Q.** What does the source list for `Cc1ccc(-c2ccc(Cl)c(F)c2)cc1C1=C(O)[C@]2(CC[C@H](C(F)(F)F)CC2)NC1=O` [V.2-b, (5s,8s)-3-(4′-Chloro-3′-fluoro-4-methylbiphenyl-3-yl)-4-hydroxy-8-(trifluoromethyl)-1-azaspiro[4.5]dec-3-en-2-one]?
**A.** fraction unbound [2, 7]: 0.0005; fraction unbound [2, 8]: 0.019; logMA [3]: 2.55; Selectivity ACC1 vs. ACC2 (mean of the individual measurements ± standard deviation) (human ACC1 [4]): 9.4 ± 0.8; Ratio IC50s ACC2/ACC1 (respective measurement) (human ACC1 [4]): 8.6 and 10.3

**Q.** Which “log P” value [1] does the source give for `COC(=O)c1ccccc1` [methyl benzoate] here?
**A.** 2.1
